Source: patent publication US10323018B2 (Millennium Pharmaceuticals, Inc., priority 2015, dated 2019)
pIC50: −log10 of the molar value.

Key:
[1] = target: hNAMPT protein (Homo sapiens (Human), UniProt P43490); experiment: NAMPT enzyme assay (TR-FRET/HTRF with BodiPY ligand); assay type: binding; settings: for inhibition at 1 µM: NAMPT inhibition at compound concentration 1 μM; for pIC50: NAMPT inhibition, IC50 range class
Summary of the method: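 Ligand displacement by TR-FRET: BodiPY emission (520 nm) over terbium (486 nm) after 320 nm excitation. Compound, BodiPY ligand, hNAMPT and anti-6His-Tb incubated 1 h at room temperature, dark, at pH 7.5. Percent inhibition computed versus DMSO; concentration-response curves fitted for IC50.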

[2] = test system: PC3 cells; experiment: PC3 growth inhibition (Cell-titer glo, 72 hours); assay type: cell-based; settings: Homo sapiens, PC-3, 72 h, read-out: Percent Viability, PC3 cells, compound concentration 1.667 μM, 72 hours
Summary of the method: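 After 72 h compound treatment in AIM serum-free medium (37 °C, 5% CO2), viability of overnight-plated PC3 cells (8×10^4 cells/ml, RPMI1640-maintained) is read by CellTiter-Glo luminescence versus DMSO. Curves give GI50, LD50 or single-concentration % remaining viability.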

hNAMPT protein, sequence (P43490 whole entry): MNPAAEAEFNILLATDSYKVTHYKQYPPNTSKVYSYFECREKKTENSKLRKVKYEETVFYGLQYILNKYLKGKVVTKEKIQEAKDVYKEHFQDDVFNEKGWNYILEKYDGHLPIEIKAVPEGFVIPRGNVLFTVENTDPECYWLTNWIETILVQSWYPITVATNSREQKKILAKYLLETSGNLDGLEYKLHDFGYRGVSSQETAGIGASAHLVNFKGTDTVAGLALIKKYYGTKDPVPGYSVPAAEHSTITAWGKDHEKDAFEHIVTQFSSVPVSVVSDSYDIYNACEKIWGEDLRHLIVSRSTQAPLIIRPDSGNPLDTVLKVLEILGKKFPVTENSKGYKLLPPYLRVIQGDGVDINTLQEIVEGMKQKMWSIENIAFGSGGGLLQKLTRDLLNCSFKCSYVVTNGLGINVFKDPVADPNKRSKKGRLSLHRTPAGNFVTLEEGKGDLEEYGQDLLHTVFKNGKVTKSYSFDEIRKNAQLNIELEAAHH

Structure (SMILES) | inhibition at 1 µM ([1]; read-out: Percent Inhibition) | pIC50 [1] | viability at 1.667 µM [2] | inhibition at 0.33 µM ([1]; NAMPT inhibition at compound concentration 0.33 μM, read-out: Percent Inhibition)
CCOc1cc(SCC)nc2cc(C(=O)NCCCc3ncc[nH]3)ccc12 [Compound I-49, N-(3-(1H-Imidazol-2-yl)propyl)-4-ethoxy-2-(ethylthio)quinoline-7-carboxamide] | 98% | > 8.00 | 5% | –
CCOc1cc(-c2ccc(F)c(F)c2)nc2cc(C(=O)NCCCc3ncc[nH]3)ccc12 [Compound I-52, 2-(3,4-difluorophenyl)-4-ethoxy-N-[3-(1H-imidazol-2-yl)propyl]quinoline-7-carboxamide] | 99% | > 8.00 | 4% | –
O=C(NCCCc1ncc[nH]1)c1ccc2c(Cc3ccccc3)nc(-c3ccc(Cl)cc3)nc2c1 [Compound I-53, 4-benzyl-2-(4-chlorophenyl)-N-[3-(1H-imidazol-2-yl)propyl]quinazoline-7-carboxamide] | 93% | 7.30 to 8.00 | 4% | –
CCOc1cc(-c2ccc(F)cc2)nc2cc(C(=O)NCc3nc4ccccc4[nH]3)ccc12 [Compound I-54, N-(1H-benzimidazol-2-ylmethyl)-4-ethoxy-2-(4-fluorophenyl)quinoline-7-carboxamide] | – | > 8.00 | 94% | 96%
CCOc1cc(-c2ccc(F)cc2)nc2cc(C(=O)NCCn3cncn3)ccc12 [Compound I-55, 4-ethoxy-2-(4-fluorophenyl)-N-[2-(1H-1,2,4-triazol-1-yl)ethyl]quinoline-7-carboxamide] | 93% | 7.00 to 7.30 | 86% | –
CCOc1cc(-c2ccc(F)c(Cl)c2)nc2cc(C(=O)NCCCc3ncc[nH]3)ccc12 [Compound I-56, 2-(3-chloro-4-fluorophenyl)-4-ethoxy-N-[3-(1H-imidazol-2-yl)propyl]quinoline-7-carboxamide] | 99% | > 8.00 | 1% | –
O=C(NCCCc1ncc[nH]1)c1ccc2c(-c3ccc(F)cc3)nc(-c3ccc(Cl)cc3)nc2c1 [Compound I-57, 2-(4-Chlorophenyl)-4-(4-fluorophenyl)-N-[3-(1H-imidazol-2-yl)propyl]quinazoline-7-carboxamide] | 99% | > 8.00 | 1% | –
CCOc1cc(C2CC2)nc2cc(C(=O)NCCCc3ncc[nH]3)ccc12 [Compound I-58, N-(3-(1H-Imidazol-2-yl)propyl)-2-cyclopropyl-4-ethoxyquinoline-7-carboxamide] | 96% | 7.30 to 8.00 | 1% | –
CCOc1cc(-c2ccc(F)cc2)nc2cc(C(=O)N[C@H]3C[C@@H](c4ncc[nH]4)C3)ccc12 [Compound I-60, 4-Ethoxy-2-(4-fluorophenyl)-N-[cis-3-(1H-imidazol-2-yl)cyclobutyl]quinoline-7-carboxamide] | 99% | > 8.00 | 1% | –
CCOc1cc(OCC)c2ccc(C(=O)NCCCc3ncc[nH]3)cc2n1 [Compound I-61, N-(3-(1H-Imidazol-2-yl)propyl)-2,4-diethoxyquinoline-7-carboxamide] | 99% | > 8.00 | 2% | –
CCOc1cc(N2CCCC2)nc2cc(C(=O)NCCCc3ncc[nH]3)ccc12 [Compound I-62, 4-Ethoxy-N-[3-(1H-imidazol-2-yl)propyl]-2-(pyrrolidin-1-yl)quinoline-7-carboxamide] | 95% | 7.00 to 7.30 | 2% | –
Cc1nc(-c2ccc(Cl)cc2)nc2cc(C(=O)NCCCc3nnc[nH]3)ccc12 [Compound I-63, N-(3-(4H-1,2,4-triazol-3-yl)propyl)-2-(4-chlorophenyl)-4-methylquinazoline-7-carboxamide] | 77% | < 7.00 | 7% | –
COCCOCc1nc(-c2ccc(Cl)cc2)nc2cc(C(=O)NCCCc3nnc[nH]3)ccc12 [Compound I-64, N-(3-(4H-1,2,4-yriazol-3-yl)propyl)-2-(4-chlorophenyl)-4-((2-methoxyethoxy)methyl)quinazoline-7-carboxamide] | 91% | 7.00 to 7.30 | 1% | –
CCOc1c(F)c(-c2ccnc(OC)c2)nc2cc(C(=O)NCCCc3[nH]nnc3C)ccc12 [Compound I-65, 4-ethoxy-3-fluoro-2-(2-methoxypyridin-4-yl)-N-[3-(4-methyl-1H-1,2,3-triazol-5-yl)propyl]quinoline-7-carboxamide] | 91% | 7.00 to 7.30 | 1% | –
COCCOc1cc(-c2ccc(F)cc2)nc2cc(C(=O)NCCCc3n[nH]nc3C)ccc12 [Compound I-66, 2-(4-fluorophenyl)-4-(2-methoxyethoxy)-N-[3-(5-methyl-2H-1,2,3-triazol-4-yl)propyl]quinoline-7-carboxamide] | 94% | 7.30 to 8.00 | 2% | –
COCCOc1cc(-c2ccnc(OC)c2)nc2cc(C(=O)NCc3ccn4ncnc4c3)ccc12 [Compound I-67] | 85% | – | 3% | –
CCOc1cc(-c2cc(OC)ncc2F)nc2cc(C(=O)NCCCc3[nH]nnc3C)ccc12 [Compound I-68, 4-ethoxy-2-(5-fluoro-2-methoxypyridin-4-yl)-N-[3-(4-methyl-1H-1,2,3-triazol-5-yl)propyl]quinoline-7-carboxamide] | 92% | 7.30 to 8.00 | 1% | –
COCCOc1cc(-c2ccnc(C)c2)nc2cc(C(=O)NCc3ccn4ncnc4c3)ccc12 [Compound I-69, 4-(2-methoxyethoxy)-2-(2-methylpyridin-4-yl)-N-([1,2,4]triazolo[1,5-a]pyridin-7-ylmethyl)quinoline-7-carboxamide] | 86% | < 7.00 | 4% | –
CCOc1cc(-c2ccnc(OC)c2)nc2cc(C(=O)NCc3ccn4ncnc4c3)ccc12 [Compound I-70, 4-ethoxy-2-(2-methoxypyridin-4-yl)-N-([1,2,4]triazolo[1,5-a]pyridin-7-ylmethyl)quinoline-7-carboxamide] | 99% | > 8.00 | 1% | –
CCOc1cc(-c2ccnc(OC)c2)nc2cc(C(=O)NCCCc3[nH]nnc3C)ccc12 [Compound I-71, 4-ethoxy-2-(2-methoxypyridin-4-yl)-N-[3-(4-methyl-1H-1,2,3-triazol-5-yl)propyl]quinoline-7-carboxamide] | 97% | 7.30 to 8.00 | 2% | –
CCOc1c(F)c(-c2ccc(F)cc2)nc2cc(C(=O)NCCCc3cnn[nH]3)ccc12 [Compound I-73, 4-ethoxy-3-fluoro-2-(4-fluorophenyl)-N-[3-(1H-1,2,3-triazol-4-yl)propyl]quinoline-7-carboxamide] | 100% | > 8.00 | 1% | –
CCOc1cc(-c2ccnc(C)c2)nc2cc(C(=O)NCc3ccc4ncnn4c3)ccc12 [Compound I-74, 4-ethoxy-2-(2-methylpyridin-4-yl)-N-([1,2,4]triazolo[1,5-a]pyridin-6-ylmethyl)quinoline-7-carboxamide] | 100% | > 8.00 | 1% | –
